Test results: patent publication US10781224B2, “Bis(oxymethyl)phosphinic acid and biogenic metal salts thereof as regulators of plant growth and development” (priority 2016, dated 2020)

Tests used:
[1] = system: winter wheat (Vershin variety); test: Winter wheat seed treatment with BHMPA salts: germinating power (length and mass of roots and sprouts); type: in vivo
Procedure, shortened: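 Seeds (50 per Petri dish on two layers of filter paper) soaked 1 h in BHMPA or its Ca, Mg, Na, Co, Mn, Cu or Zn salts at 1·10^−6-1·10^−12%, with water controls. Germination energy read on day 4, germination on day 8 (wheat) or day 7 (rice, corn), as % means of four replicates. Germinating power taken as root and sprout length plus wet and dry mass per 100 seedlings.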

[2] = system: corn (Krasnodar 385 MV variety); test: Corn seed treatment with BHMPA salts: germination energy and germination rate; type: in vivo
Procedure, shortened: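 Corn, winter wheat and rice seeds (50 per dish, on filter paper) were soaked for 1 h in BHMPA or its metal salts at 1·10^−6-1·10^−12%, with water as control. Germination energy was read on day 4 and germination rate on day 8 for wheat and day 7 for rice and corn, following GOST 12038-84, as the mean of four replicates.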

[3] = all the experiments (1·10^−6% to 1·10^−12%)
[4] = comparative study, 1·10^−12% solution
[5] = comparative study vs Melaphen, 1·10^−10% solution

## O=P([O-])(CO)CO.O=P([O-])(CO)CO.[Ca+2] [Ca-salt, Calcium BHMPA Salt]
[1]; 1·10^−6% solution
  Length, root: 7.1 cm
  Length, root, + % to control: 27%
  Length, sprout: 6.9 cm
  Length, sprout, + % to control: 19%
  Mass, dry, root: 0.45 g/100 plantlings
  Mass, dry, root, + % to control: 41%
  Mass, dry, sprout: 0.47 g/100 plantlings
  Mass, dry, sprout, + % to control: 9%
  Mass, wet, root: 4.16 g/100 plantlings
  Mass, wet, root, + % to control: 12%
  Mass, wet, sprout: 5.32 g/100 plantlings
  Mass, wet, sprout, + % to control: 5%
[1]; 1·10^−7% solution
  Length, root: 7.4 cm
  Length, root, + % to control: 34%
  Length, sprout: 7.4 cm
  Mass, dry, root: 0.47 g/100 plantlings
  Mass, dry, root, + % to control: 47%
  Mass, dry, sprout: 0.55 g/100 plantlings
  Mass, dry, sprout, + % to control: 30%
  Mass, wet, root: 4.89 g/100 plantlings
  Mass, wet, root, + % to control: 32%
  Mass, wet, sprout: 5.57 g/100 plantlings
  Mass, wet, sprout, + % to control: 10%
[1]; 1·10^−8% solution
  Length, root: 6.5 cm
  Length, root, + % to control: 18%
  Length, sprout: 6.4 cm
  Length, sprout, + % to control: 10%
  Mass, dry, root: 0.39 g/100 plantlings
  Mass, dry, root, + % to control: 22%
  Mass, dry, sprout: 0.45 g/100 plantlings
  Mass, dry, sprout, + % to control: 5%
  Mass, wet, root: 4.08 g/100 plantlings
  Mass, wet, root, + % to control: 10%
  Mass, wet, sprout: 5.32 g/100 plantlings
  Mass, wet, sprout, + % to control: 5%
[1]; 1·10^−9% solution
  Length, root: 6.5 cm
  Length, root, + % to control: 18%
  Length, sprout: 6.5 cm
  Length, sprout, + % to control: 12%
  Mass, dry, root: 0.41 g/100 plantlings
  Mass, dry, root, + % to control: 28%
  Mass, dry, sprout: 0.48 g/100 plantlings
  Mass, dry, sprout, + % to control: 12%
  Mass, wet, root: 4.20 g/100 plantlings
  Mass, wet, root, + % to control: 13%
  Mass, wet, sprout: 5.36 g/100 plantlings
  Mass, wet, sprout, + % to control: 5.5%
[1]; 1·10^−10% solution
  Length, root: 6.6 cm
  Length, root, + % to control: 20%
  Length, sprout: 6.5 cm
  Length, sprout, + % to control: 12%
  Mass, dry, root: 0.45 g/100 plantlings
  Mass, dry, root, + % to control: 41%
  Mass, dry, sprout: 0.53 g/100 plantlings
  Mass, dry, sprout, + % to control: 23%
  Mass, wet, root: 4.34 g/100 plantlings
  Mass, wet, root, + % to control: 17%
  Mass, wet, sprout: 5.41 g/100 plantlings
  Mass, wet, sprout, + % to control: 6.5%
[1]; 1·10^−11% solution
  Length, root: 7.2 cm
  Length, root, + % to control: 31%
  Length, sprout: 6.9 cm
  Length, sprout, + % to control: 19%
  Mass, dry, root: 0.46 g/100 plantlings
  Mass, dry, root, + % to control: 44%
  Mass, dry, sprout: 0.54 g/100 plantlings
  Mass, dry, sprout, + % to control: 25.5%
  Mass, wet, root: 4.70 g/100 plantlings
  Mass, wet, root, + % to control: 27%
  Mass, wet, sprout: 5.50 g/100 plantlings
  Mass, wet, sprout, + % to control: 8%
[1]; 1·10^−12% solution
  Length, root: 7.4 cm
  Length, root, + % to control: 34%
  Length, sprout: 7.9 cm
  Length, sprout, + % to control: 36%
  Mass, dry, root: 0.48 g/100 plantlings
  Mass, dry, root, + % to control: 50%
  Mass, dry, sprout: 0.59 g/100 plantlings
  Mass, dry, sprout, + % to control: 37%
  Mass, wet, root: 5.19 g/100 plantlings
  Mass, wet, root, + % to control: 40%
  Mass, wet, sprout: 6.55 g/100 plantlings
  Mass, wet, sprout, + % to control: 29%
[1]; [3]
  increase in mass of sprouts: 5%-50%
  increase in size of sprouts: 10%-36%
[1]; [4]
  Length, root: 9.7 cm
  Length, root, + % to control: 11%
  Length, sprout: 6.4 cm
  Length, sprout, + % to control: 3%
  Mass, dry, root: 0.66 g/100 plantlings
  Mass, dry, root, + % to control: 6%
  Mass, dry, sprout: 0.54 g/100 plantlings
  Mass, dry, sprout, + % to control: 6%
  Mass, wet, root: 5.03 g/100 plantlings
  Mass, wet, root, + % to control: 40%
  Mass, wet, sprout: 4.88 g/100 plantlings
  Mass, wet, sprout, + % to control: 23%
[2]; 1·10^−6% solution
  Germination energy: 74.3%
  Germination rate: 77.0%
[2]; 1·10^−7% solution
  Germination energy: 77.3%
  Germination rate: 82.0%
[2]; 1·10^−8% solution
  Germination energy: 81.8%
  Germination rate: 84.2%
[2]; 1·10^−9% solution
  Germination energy: 85.0%
  Germination rate: 87.7%
[2]; 1·10^−10% solution
  Germination energy: 87.8%
  Germination rate: 90.0%
[2]; 1·10^−11% solution
  Germination energy: 85.5%
  Germination rate: 88.3%
[2]; 1·10^−12% solution
  Germination energy: 82.3%
  Germination rate: 85.0%
[2]; [5]
  Germination energy: 85.0%
  Germination rate: 95.3%
